{"source": "ChEMBL document CHEMBL3045638", "about": "“Quantitative structure-activity relationship of terpenoid aphid antifeedants” (2008)", "data": [{"system": "Lipaphis erysimi", "assay": "Antifeedant activity against apterous adult stage of Lipaphis erysimi (mustard aphids) in compound pre-treated cabbage leaves assessed as antifeedant ratio measured after 48 hr", "assay_type": "functional", "values": [{"smiles": "CC(=O)OC1CC(C)CCC1C(C)C", "note": "(stereo unspecified)", "Ratio": 0.533}, {"smiles": "CCC(CCCC1C2CCC(C2)C1(C)C)OC(C)=O", "note": "(stereo unspecified)", "Ratio": 0.83}, {"smiles": "CC1=CCC(C(C)(C)O)CC1OC=O", "note": "(stereo unspecified)", "Ratio": 0.42}, {"smiles": "C=C(C)C1CC=C(CCOC(=O)CC)CC1", "note": "(stereo unspecified)", "Ratio": 0.701}, {"smiles": "CCC(=O)OC1CC(C)CCC1C(C)C", "note": "(stereo unspecified)", "Ratio": 0.505}, {"smiles": "CCCOCCC1=CCC2CC1C2(C)C", "note": "(stereo unspecified)", "Ratio": 0.504}, {"smiles": "CCOCCC1=CCC2CC1C2(C)C", "note": "(stereo unspecified)", "Ratio": 0.522}, {"smiles": "CC(=O)OC1CC(C(C)(C)O)CC=C1C", "note": "(stereo unspecified)", "Ratio": 0.476}, {"smiles": "CC1=CCC(C(C)(C)O)CC1O", "note": "(stereo unspecified) [SOBREROL]", "Ratio": 0.463}, {"smiles": "COCCC1=CCC2CC1C2(C)C", "note": "(stereo unspecified)", "Ratio": 0.548}, {"smiles": "CC1(C)C2CC=C(CCOC=O)C1C2", "note": "(stereo unspecified)", "Ratio": 0.518}, {"smiles": "C=C(C)C1CC=C(CCOC(C)=O)CC1", "note": "(stereo unspecified)", "Ratio": 0.674}, {"smiles": "CC(=O)OCCC1C2CCC(C2)C1(C)C", "note": "(stereo unspecified)", "Ratio": 0.628}, {"smiles": "CCC(=O)OC1CC(C(C)(C)O)CC=C1C", "note": "(stereo unspecified)", "Ratio": 0.526}, {"smiles": "CC1(C)C2CC=C(CCO)C1C2", "note": "(stereo unspecified) [Nopol]", "Ratio": 0.47}, {"smiles": "CC1(C)C2CC3OC3(C)C1C2", "note": "(stereo unspecified)", "Ratio": 0.415}, {"smiles": "CCC(=O)OCCC1=CCC2CC1C2(C)C", "note": "(stereo unspecified)", "Ratio": 0.63}, {"smiles": "CC1CCC(C(C)C)C(O)C1", "note": "(stereo unspecified) [MENTHOL]", "Ratio": 0.584}, {"smiles": "CCC(CCC1C2CCC(C2)C1(C)C)C(C)OC(C)=O", "note": "(stereo unspecified)", "Ratio": 0.786}, {"smiles": "CCCC(CCCC1C2CCC(C2)C1(C)C)OC(C)=O", "note": "(stereo unspecified)", "Ratio": 0.813}, {"smiles": "CC(=O)OCCC1=CCC2CC1C2(C)C", "note": "(stereo unspecified)", "Ratio": 0.572}]}]}
